According to ChEMBL document CHEMBL1201862, “PubChem BioAssay data set” (2004):
Activity calls are given as the source filed them.

Experiments:
[1] = Luminescence-based dose response cell-based high throughput screening assay for cytotoxic compounds using the IEC-6 intestinal epithelial cell line. [Related pubchem assays: 1858 (Summary AID.), 1825 (Counterscreen.), 1907 (Confirmation screen.)]; format: functional
[2] = cytotoxicity in HEK-293T cells, dose response, cytotoxicity control for TCR NF-kB inhibitor project, luminescence, T-cell screen hits (AID 489026); format: functional, cell-based;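 also: cells exposed to compound about 14 hours before the viability readout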
[3] = system: BJ; assay: cytotoxicity toward Ras-transformed BJeLR fibroblasts, dose response, cell-based, alamar blue fluorescence, cherrypicked samples (AID 2631); format: functional; details: Homo sapiens;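 also: confirmatory dose-response assay in RAS-dependent BJ fibroblasts engineered with TERT, LT and ST, with cytotoxicity read by fluorescence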
[4] = system: HEK293; assay: SAR Analysis of small molecule inhibitors of T-cell specific antigen receptor-induced NF-kB activation in a HEK-293T cell line using a luminescence assay - Set 2. [Related pubchem assays (depositor defined):AID435003, AID435012, AID489026]; format: functional, cell-based; details: Homo sapiens
[5] = HepG2 cell cytotoxicity, dose response, cytotoxicity control for Shn3 inhibitor project, CellTiter-Glo, cherry-picked (AID 624134); format: functional, cell-based
[6] = molecular target: T1, Caspase-3 (Homo sapiens, UniProt P42574); format: functional;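 also: Dose-response selectivity test against caspase-3 for candidate inhibitors of sentrin-specific proteases (SENPs)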
T1 sequence (P42574 whole entry): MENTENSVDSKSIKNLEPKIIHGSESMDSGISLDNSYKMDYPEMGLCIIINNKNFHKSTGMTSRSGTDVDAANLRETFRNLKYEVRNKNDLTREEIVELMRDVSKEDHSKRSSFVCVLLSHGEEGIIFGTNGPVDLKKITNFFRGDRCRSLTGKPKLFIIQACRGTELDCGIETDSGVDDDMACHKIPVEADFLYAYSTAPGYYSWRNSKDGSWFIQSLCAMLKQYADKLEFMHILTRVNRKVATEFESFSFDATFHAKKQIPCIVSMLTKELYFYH

[7] = molecular target: T2, Sentrin-specific protease 7 (Homo sapiens, UniProt Q9BQF6); format: functional;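 also: Luminescence-based dose-response confirmation of ultra-high-throughput screening hits, measuring inhibition of SENP7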
T2 sequence (Q9BQF6 whole entry): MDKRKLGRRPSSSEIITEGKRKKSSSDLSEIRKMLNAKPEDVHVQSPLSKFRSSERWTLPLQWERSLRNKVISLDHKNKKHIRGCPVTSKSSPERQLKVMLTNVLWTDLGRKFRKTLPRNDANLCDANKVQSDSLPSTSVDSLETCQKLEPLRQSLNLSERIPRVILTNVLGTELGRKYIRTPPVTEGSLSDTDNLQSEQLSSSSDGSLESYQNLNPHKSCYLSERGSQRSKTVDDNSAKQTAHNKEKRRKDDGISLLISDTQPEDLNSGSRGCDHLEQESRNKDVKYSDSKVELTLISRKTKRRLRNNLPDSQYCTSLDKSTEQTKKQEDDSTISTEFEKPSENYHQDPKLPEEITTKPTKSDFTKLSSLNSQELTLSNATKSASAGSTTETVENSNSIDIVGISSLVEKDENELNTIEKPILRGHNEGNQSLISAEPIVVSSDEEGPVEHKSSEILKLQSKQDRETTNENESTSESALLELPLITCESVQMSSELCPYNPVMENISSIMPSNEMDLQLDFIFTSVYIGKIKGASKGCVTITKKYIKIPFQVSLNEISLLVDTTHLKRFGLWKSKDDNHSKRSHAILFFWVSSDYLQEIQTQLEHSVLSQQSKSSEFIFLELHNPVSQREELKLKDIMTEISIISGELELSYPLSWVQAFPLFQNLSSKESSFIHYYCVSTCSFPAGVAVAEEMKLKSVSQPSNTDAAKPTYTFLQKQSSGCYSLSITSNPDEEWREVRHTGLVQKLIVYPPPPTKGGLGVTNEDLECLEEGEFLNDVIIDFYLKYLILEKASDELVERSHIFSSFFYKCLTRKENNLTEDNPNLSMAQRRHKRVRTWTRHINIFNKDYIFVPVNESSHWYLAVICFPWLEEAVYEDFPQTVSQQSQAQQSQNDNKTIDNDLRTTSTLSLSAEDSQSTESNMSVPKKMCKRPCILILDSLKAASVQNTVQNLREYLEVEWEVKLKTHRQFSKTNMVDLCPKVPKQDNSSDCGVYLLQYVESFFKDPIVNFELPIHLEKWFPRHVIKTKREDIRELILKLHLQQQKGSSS

[8] = molecular target: T3, Sentrin-specific protease 6 (Homo sapiens, UniProt Q9GZR1); format: functional;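 also: Luminescence-based dose-response confirmatory assay of SENP6 inhibition, following up an ultra-high-throughput screen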
T3 sequence (Q9GZR1 whole entry): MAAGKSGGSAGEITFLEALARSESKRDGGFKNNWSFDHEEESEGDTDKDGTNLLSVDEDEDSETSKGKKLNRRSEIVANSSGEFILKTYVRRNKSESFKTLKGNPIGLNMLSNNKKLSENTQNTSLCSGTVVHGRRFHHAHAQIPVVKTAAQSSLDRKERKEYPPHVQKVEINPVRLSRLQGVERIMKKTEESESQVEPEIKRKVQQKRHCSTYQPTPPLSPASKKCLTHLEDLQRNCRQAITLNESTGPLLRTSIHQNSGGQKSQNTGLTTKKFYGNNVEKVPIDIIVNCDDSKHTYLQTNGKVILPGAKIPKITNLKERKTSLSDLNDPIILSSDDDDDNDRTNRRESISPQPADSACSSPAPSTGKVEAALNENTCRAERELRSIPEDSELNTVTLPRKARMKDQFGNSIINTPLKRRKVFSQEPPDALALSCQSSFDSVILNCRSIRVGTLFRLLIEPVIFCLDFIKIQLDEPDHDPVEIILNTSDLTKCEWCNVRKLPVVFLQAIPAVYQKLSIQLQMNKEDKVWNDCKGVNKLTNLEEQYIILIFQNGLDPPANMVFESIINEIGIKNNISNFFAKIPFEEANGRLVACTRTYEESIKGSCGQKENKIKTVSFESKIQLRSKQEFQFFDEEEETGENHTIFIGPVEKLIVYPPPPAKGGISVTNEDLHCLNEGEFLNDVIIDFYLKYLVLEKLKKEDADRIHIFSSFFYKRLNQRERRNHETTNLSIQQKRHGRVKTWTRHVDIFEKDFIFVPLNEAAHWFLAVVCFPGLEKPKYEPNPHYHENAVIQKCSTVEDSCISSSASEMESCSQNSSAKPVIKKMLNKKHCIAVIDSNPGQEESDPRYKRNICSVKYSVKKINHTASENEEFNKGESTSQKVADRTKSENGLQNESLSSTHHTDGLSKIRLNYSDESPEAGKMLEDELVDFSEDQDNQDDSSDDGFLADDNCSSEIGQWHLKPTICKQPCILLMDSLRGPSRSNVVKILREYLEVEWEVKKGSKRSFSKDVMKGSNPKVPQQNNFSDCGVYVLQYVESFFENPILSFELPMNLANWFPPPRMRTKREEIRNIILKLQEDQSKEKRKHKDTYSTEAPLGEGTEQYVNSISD

[9] = molecular target: Caspase-7 (Homo sapiens, UniProt P55210); assay: human caspase-7 inhibitors, dose response, selectivity assay for caspase-6 inhibitor project, biochemical, DEVD-R110 fluorescence, cherry-pick (AID 743295)
Caspase-7, sequence (P55210 24-198 limits assumed): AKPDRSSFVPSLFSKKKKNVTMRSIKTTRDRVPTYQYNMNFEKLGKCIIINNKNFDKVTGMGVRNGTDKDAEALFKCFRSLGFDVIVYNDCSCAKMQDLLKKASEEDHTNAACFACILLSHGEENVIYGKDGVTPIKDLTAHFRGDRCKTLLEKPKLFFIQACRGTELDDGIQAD
Caspase-7, sequence (P55210 207-303 limits assumed): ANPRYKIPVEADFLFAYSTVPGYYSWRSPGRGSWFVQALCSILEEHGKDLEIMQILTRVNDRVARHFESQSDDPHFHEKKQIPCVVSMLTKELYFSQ

| IC50 [6] | IC50 [7] | IC50 [8] | AC50 [9] | SMILES | IC50 [1] | IC50 [2] | EC50 [3] | IC50 [4] | AC50 [5] |
| --- | --- | --- | --- | --- | --- | --- | --- | --- | --- |
| – | – | – | – | CCCCC(=O)NC(c1ccc(N(C)C)cc1)c1ccc2cccnc2c1O (centres undefined) | 1.72 µM (active) | > 80 µM (inactive) | 0.465 µM (active) | 2.23 µM (active) | 2.47 µM (active) |
| 6.21 µM (active) | 8.73 µM (active) | 4.72 µM (active) | 20.6 µM (active) | CN(CC(=O)Nc1ccccc1Cl)C(=O)COC(=O)c1ccc([N+](=O)[O-])s1 | – | – | – | – | – |
